# Measurements as given in US20110110958A1, “COMPOSITIONS AND METHODS FOR THE TREATMENT OF NEOPLASIA” (UNIVERSITY OF FLORIDA RESEARCH FOUNDATION, priority 2007, published 2011).
# Key:
# glioma cell viability = assay: GI50 comparison of J1 with FDA approved chemotherapy drugs (FIG. 12); format: cell-based; conditions: read-out: GI50 (concentration of drug that causes 50% growth inhibition)
# U87MG glioma cells [1] = assay: Cell viability assay (trypan blue exclusion), U87MG; format: cell-based, human; set-up: viable U87 cells after JAZ siRNA plus J1: dose or concentration left out as unconfirmed
# Description: (§1) T98G, U87MG, U118MG, A172, LN18, DBTRG-05MG, LN229, M059J, WT4 human glioma cell lines were purchased from American Type Culture Collection (Rockville, Md.). Cell culture was conducted according to the ATCC's recommendations, available at www.atcc.org. Normal human astrocytes (NHA) were purchased from Lonza Bioscience (Switzerland). Cell cultures were grown according to the vendor's recommendations for each cell line. GL261 mouse glioma cell line was obtained from NCI (Frederick, Md.) and was grown in RPMI (Gibco BRL, Grand Island, N.Y.) containing 10% FBS, 1% Penicillin-Streptomycin, and 4 mM L-glutamine at 37° C. with 5% CO2.
# (§2) J1 and its derivatives were provided by NCI developmental therapeutic program repository or purchased from Sigma-Aldrich Inc. Temozolomide (TMZ) was obtained from Schering-Plough (Kenilworth, N.J.). Both J1 and TMZ were dissolved in DMSO and stock solution of 100 mM were made.
# JAZ siRNA and control siRNA were purchased from Invitrogen. Cell transfection was performed by using METAFECTENE PRO (Biontex Laboratories GmbH, Germany) following the manufacturer's instructions. Briefly, 40 pmoles of JAZ (or control) siRNA was added into 30 μl serum-free medium then mixed with METAFECTENE PRO solution and incubated for 15-20 minutes at room temperature. The final siRNA-lipid complex solution was added into one 24-well-plate well. The complex-containing medium was replaced with serum-containing medium at 3 hours after the transfection to reduce the toxicity.
# (§3) Cell viability was measured by first seeding tumor cells in 24-well dishes at a density of 10,000 cells per well. Two days later, cells were transduced with JAZ (or control) siRNA. Forty-eight hours after transduction, cells were collected by trypsinization followed by the trypan blue exclusion method (Yang et al., J Biol Chem 1999; 274:27399-406) and counted manually using a hemacytometer. This experiment was repeated six times for each cell line and each time in triplicate.
# [2] = system: LNCAP prostate carcinoma cells; assay: Cytotoxicity on LNCAP; format: cell-based
# U87 glioma cells = assay: Quantitative proteomics (iTRAQ 4plex), U87; format: cell-based, human
# Description: (§4) FIGS. 14A and 14B are tables showing quantitative proteomic analysis of proteome changes 48 hours after J1 (65 μM, NCI) treatment on U87 (FIG. 14A) and U118 (FIG. 14B) glioma cells. To further explore the molecular mechanism of J1's cytotoxic effects on glioma cells, a quantitative proteomics analysis (iTRAQ 4plex) was conducted after J1 treatment. There were four groups: untreated U87 and U118 glioma cells and J1 treated U87 and U118 glioma cells at 48 hours. Each group was in triplicate. […] HSPA5 activation is a marker for Unfolded Protein Response (UPR), a pathway that can contribute to cell death or cell survival.
# [3] = system: primary cultured hepatocytes; assay: Cytotoxicity on primary cultured hepatocytes; format: cell-based; conditions: 24 hours after drug treatment
# colon cancer cells = assay: Cytotoxicity to colon cancer cells (FIG. 13); format: cell-based
# leukemia cells = assay: Cytotoxicity to leukemia cells (FIG. 13); format: cell-based
# U87MG glioma cells [4] = assay: DNA laddering in glioma cells; format: cell-based, human; conditions: J1 25 μM
# [5] = system: JAZ, p53, and Bax protein levels; assay: Western blot of JAZ, p53 and Bax; format: cell-based; conditions: J1 25 μM
# Description: (§5) Whole cell protein extracts were prepared using cold lysis buffer consisting of: M-Per mammalian protein extraction reagent (Pierce Biochemical, Rockford, Ill.), 30 mM sodium fluoride, 1 mM sodium vanadate, and protease inhibitor cocktail tablets (Boehringer Mannheim). Samples were incubated on ice for 10 minutes and supernatants were recovered by centrifuging at 14,000 rpm at 4° C. for 20 minutes. Protein concentrations were determined by the BCA method (Pierce Biochemical). Proteins were separated on SDS-PAGE and transferred to nitrocellulose membrane (Osmonics, Minnetonka, Minn.). Blocking reagent is 5% nonfat dry milk in PBS (pH 7.4). Washing buffer is PBS (pH 7.4) with 0.1% Tween 20. Primary antibodies (p53, ATM, CHK1, CHK2) are commercially available. JAZ primary antibodies are described in Yang et al., Blood 108:4136-4145, 2006. The respective HRP-conjugated secondary antibodies were purchased from Boehringer Mannheim. Signals are visualized by using ECL chemiluminescence (Amersham, Indianapolis, Ind.) or Supersignal chemiluminescence (Pierce Biochemical) and Kodak X-OMAT films. Data acquired as integrated densitometric values are transformed to percentages of the values obtained from control samples visualized on the same blot.
# U118 glioma cells = assay: Quantitative proteomics (iTRAQ 4plex), U118; format: cell-based, human
# Description: as §4
# lung cancer cells = assay: Cytotoxicity to lung cancer cells (FIG. 13); format: cell-based
# [6] = system: DU145 prostate carcinoma cells; assay: Cytotoxicity on DU145; format: cell-based
# [7] = system: ATF-4 and CHOP in U87 cells; assay: Immunofluorescence of ATF-4 and CHOP, U87; format: cell-based, human
# GL261 glioma cells = assay: Cytotoxicity on GL261; format: cell-based, mouse; conditions: increasing concentrations
# Description: as §1
# [8] = system: ATF-4 protein levels in U118MG cell line; assay: Western blot of ATF-4, U118MG; format: cell-based, human; conditions: U118MG, 24, 48, and 72 hours after J1 (10 and 25 μM)
# Description: as §5
# HepG2 cells = assay: Cytotoxicity on HepG2; format: cell-based, Human; conditions: dose and time-dependent
# [9] = system: ATF-4 protein levels in U87 glioma cells; assay: Western blot of ATF-4, U87; format: cell-based, human; conditions: U87, 24, 48, and 72 hours after J1 (10 and 25 μM)
# Description: as §5
# T98G glioma cells = assay: Cell viability assay (trypan blue exclusion), T98G; format: cell-based, human; conditions: mutant-type p53-expressing T98G cells after J1 treatment
# Description: as §1, §2
# (§6) JAZ siRNA and control siRNA were purchased from Invitrogen. […]
# as §3, with “Two days later, cells were transduced with JAZ (or control) siRNA.” left out, “This experiment was repeated six times for each cell line and each time in triplicate.” left out
# WT4 glioma cells = assay: Cell viability assay (trypan blue exclusion), WT4; format: cell-based, human; conditions: p53-expressing and p53-non-expressing WT4 cells, J1 25 μM
# Description: as §1, §2, §6
# as §3, with “Two days later, cells were transduced with JAZ (or control) siRNA.” left out, “This experiment was repeated six times for each cell line and each time in triplicate.” left out
# glioma = assay: In vitro glioma cytotoxic effects of J1 analogues (FIG. 18); format: cell-based
compound,measurement,setting,value
"Cn1nnc2c(C(N)=O)ncn2c1=O [Temozolomide, reference compound]",GI50,glioma cell viability,100 µM
"O=C(Nc1ccc(Cl)c(Cl)c1)Nc1ccccc1O [J1, N′-(2-hydroxy-phenyl)-N-(3,4-dichlorophenyl)Urea]",viable U87 cells after JAZ siRNA plus J1,"U87MG glioma cells [1]; 24 hours after JAZ siRNA transfection, J1 for additional 24 hours",did not lead to further reduction of viable U87 cells
same,viable U87 cells,U87MG glioma cells [1]; 48 hours after J1 treatment (10 μM),reduction of viable U87 cells
same,"viable tumor cells, time and dose course",U87MG glioma cells [1]; U87MG cells after J1 treatment,time- and dose-dependent significant reduction of viable tumor cells
same,cytotoxic effects on LNCAP cells,[2],strong dose and time-dependent cytotoxic effects
same,"HSPA5 (GRP78, Bip) protein levels","U87 glioma cells; U87, 48 hours after J1 (65 μM)",consistently and significantly increased
same,PLOD2 protein level,U87 glioma cells; U87 glioma cells,significantly down-regulated
same,proteins up-regulated by J1 treatment,U87 glioma cells; U87 glioma cells,"PBEF1, HSPA5, ANXA1, TPI1, ANXA5, HSPA9, TGM2, NPM1, and RPLP2"
same,cytotoxic effects on primary cultured hepatocytes,[3],minimal cytotoxic effects
same,cytotoxicity to colon cancer cells,colon cancer cells,cytotoxic
same,cytotoxicity to leukemia cells,leukemia cells,cytotoxic
same,DNA laddering formation,U87MG glioma cells [4],increased DNA laddering formation
same,"JAZ, p53, and Bax protein levels",[5],did not alter
same,"HSPA5 (GRP78, Bip) protein levels","U118 glioma cells; U118, 48 hours after J1 (65 μM)",consistently and significantly increased
same,proteins up-regulated by J1 treatment,U118 glioma cells; U118 glioma cells,"HSPA5, PBEF1, HSPA1B, VIM, LMNA and HIST2H3PS2"
same,GI50,glioma cell viability,10 µM
same,cytotoxicity to lung cancer cells,lung cancer cells,cytotoxic
same,cytotoxic effects on DU145 cells,[6],strong dose and time-dependent cytotoxic effects
same,nuclear ATF-4 staining,[7]; 12 hours after J1 (25 μM),significantly increased
same,CHOP staining,[7]; 24 hours after J1 (25 μM),significantly increased
same,cytotoxic effects on GL261 glioma cells,GL261 glioma cells,progressively greater cytotoxic effects
same,ATF-4 protein levels,[8],time- and dose dependent increase
same,cytotoxic effects on HepG2 cells,HepG2 cells,significant cytotoxic effects
same,ATF-4 protein levels,[9],time- and dose dependent increase
same,"viable tumor cells, time and dose course",T98G glioma cells,time- and dose-dependent significant reduction of viable tumor cells
same,viable tumor cells,WT4 glioma cells,time-dependent significant reduction of viable tumor cells
"O=C(Nc1ccc(Cl)cc1)Nc1ccc(Cl)c(Cl)c1 [J1-h, 3-(4-chloro-phenyl)-1-(3,4-dichlorophenyl) Urea]",cytotoxic effects on LNCAP cells,[2],strong dose and time-dependent cytotoxic effects
same,cytotoxic effects on primary cultured hepatocytes,[3],minimal cytotoxic effects
same,in vitro glioma cytotoxic effects,glioma,glioma cytotoxic effects
same,cytotoxic effects on DU145 cells,[6],strong dose and time-dependent cytotoxic effects
same,cytotoxic effects on GL261 glioma cells,GL261 glioma cells,progressively greater cytotoxic effects
same,cytotoxic effects on HepG2 cells,HepG2 cells,significant cytotoxic effects
